Source: patent US20260317344A1, “EGFR INHIBITORS FOR TREATING DISEASE” (BLOSSOMHILL THERAPEUTICS, INC., priority 2023, published 2026)

How the values were obtained:
[1] = biological target: EGFR (L858R/T790M/C797S) (Homo sapiens, UniProt P00533, C797S/L858R/T790M); experiment: HotSpot radiometric kinase assay, inhibition of EGFR L858R/T790M/C797S mutant; format: biochemical; details: 33P ATP, room temperature, 120 m
Experimental: (§1) Biochemical Assays for inhibition of wild-type and mutant EGFRs
(§2) Briefly, specific kinase/substrate pairs along with required cofactors were prepared in reaction buffer; 20 mM HEPES pH 7.5, 10 mM […], 1 mM EGTA, 0.02% Brij35, 0.02 mg/ml BSA, 0.1 mM Na3VO4, 2 mM DTT, 1% DMSO. Compounds were delivered into the reaction, followed ~20 minutes later by addition of a mixture of ATP (Sigma, St. Louis MO) and ^33P ATP (Perkin Elmer, Waltham MA) to a final concentration of […]. Reactions were carried out at room temperature for 120 m, followed by spotting of the reactions onto P81 ion exchange filter paper (Whatman Inc., Piscataway, NJ). Unbound phosphate was removed by extensive washing of filters in 0.75% phosphoric acid. […] IC50 values and curve fits were obtained using Prism (GraphPad Software).

[2] = system: PC-9 cells; experiment: 5-Day CellTiter Glo (CTG) cell proliferation assay, PC-9; format: cell-based; details: Homo sapiens; PC-9 cells (d746-750 EGFR), 5-day CTG proliferation, 120 hours; read-out: PC-9 IC50
Experimental: (§3) 5-Day CellTiter Glo (CTG) Cell Proliferation Assays (PC9, H1975, H827)
(§4) Cell proliferation assays were carried out in NSCLC cells with EGFR activation mutations. Both PC-9 cells and HCC827 cells (purchased from DSMZ) carry a Glu746-Ala750 deletion (d746-750) mutation in exon 19 of the EGFR gene and NCI-H1975 cells carry both L858R activation mutation and T790M gatekeeper mutation in the EGFR gene. One thousand PC-9, NCI-H1975 or HCC827 cells/100 μL per well were seeded in 96-well black plate with transparent bottom and then treated with indicated compounds in a 9-dose dilution series dispensed using TECAN d300e liquid dispenser. Cells were incubated with compounds for 120 hours at 37° C. and 5% CO2. Cell proliferation was measured using CellTiter-Glo 2.0 luciferase-based ATP detection assay (Promega, Madison, WI) at […] per well following the manufacturer's protocol. Plates were then read on a TECAN Sparks multimode microplate reader. Data was analyzed using GraphPad Prism 9 (GraphPad Software, San Diego, CA) to obtain IC50 values.

[3] = biological target: EGFR (D746-750) (Homo sapiens, UniProt P00533, DEL746-750); experiment: HotSpot radiometric kinase assay, inhibition of EGFR 746-750 mutant; format: biochemical; details: 33P ATP, room temperature, 120 m
Experimental: as §1, §2

[4] = biological target: T1, pEGFR, NCI-H1975 cells (L858R/T790M EGFR) (Homo sapiens, UniProt P00533, L858R/T790M); experiment: Cellular EGFR phosphorylation assay (LANCE Ultra TR-FRET) in NCI-H1975 cells; format: cell-based; details: 4 hours at 37° C., read-out: H1975 pEGFR IC50
T1 construct: pEGFR (Tyr1068) TR-FRET
Experimental: (§5) Cellular EGFR Phosphorylation Assays
(§6) EGFR phosphorylation assays were conducted in NSCLC cells with EGFR activation mutations. PC-9 cells (purchased from Aldrich-Sigma) carry a Glu746-Ala750 deletion (d746-750) mutation in exon 19 of the EGFR gene and NCI-H1975 cells (purchased from ATCC) carry both L858R activation mutation and T790M gatekeeper mutation in the EGFR gene. A431 cells (purchased from ATCC) with amplification of wildtype EGFR, derived from epidermoid carcinoma, were used to measure the activity against wildtype EGFR. All cells were seeded in 96-well plates. For PC-9 and NCI-H1975 cells, 50 thousand cells were seeded per well. For A431 cells, 30 thousand cells were seeded per well. The next day, cells were exposed to compound for 4 hours at 37° C. and 5% CO2. Compounds were diluted in DMSO and added to cells in a 9-dose, 3-fold dilution, titration curve using TECAN d300e liquid dispenser. For A431 cells, 40 ng/mL of EGF was added to the media for the final 10 minutes of incubation. EGFR phosphorylation was measured using phospho-EGFR (Try1068) LANCE Ultra TR-FRET Detection Kit (TRF4015M) from PerkinElmer according to manufacturer's instructions. In brief, cells were lysed with 40 μL of lysis buffer plus 1× Halt protease and phosphatase inhibitor cocktail (Thermo 78441) and by incubation at room temperature for 1 h on a microplate shaker (350 rpm). 15 μ L of cell lysate was transferred to 384-well white plate and 5 μL of Europium- and ULight-labeled antibodies diluted in 1× detection buffer was added to each well. After 4-6 hours of incubation at room temperature, plates were then read on a TECAN Sparks multimode microplate reader. Data was analyzed using GraphPad Prism 9 (GraphPad Software, San Diego, CA) to obtain IC50 values.

[5] = system: NCI-H1975 cells; experiment: 5-Day CellTiter Glo (CTG) cell proliferation assay, NCI-H1975; format: cell-based; details: Homo sapiens; NCI-H1975 cells (L858R/T790M EGFR), 5-day CTG proliferation, 120 hours; read-out: H1975 IC50
Experimental: as §3, §4

[6] = biological target: EGFR (D746-750/C797S) (Homo sapiens, UniProt P00533, C797S/DEL746-750); experiment: HotSpot radiometric kinase assay, inhibition of EGFR 746-750/C797S mutant; format: biochemical; details: 33P ATP, room temperature, 120 m
Experimental: as §1, §2

[7] = biological target: T2, pEGFR, A431 cells (wildtype EGFR) (Homo sapiens, UniProt P00533); experiment: Cellular EGFR phosphorylation assay (LANCE Ultra TR-FRET) in A431 cells; format: cell-based; details: 4 hours at 37° C., 40 ng/mL EGF for the final 10 minutes, read-out: A431 pEGFR IC50
T2 construct: pEGFR (Tyr1068) TR-FRET
Experimental: as §5, §6

[8] = system: HCC827 cells; experiment: 5-Day CellTiter Glo (CTG) cell proliferation assay, HCC827; format: cell-based; details: Homo sapiens; HCC827 cells (d746-750 EGFR), 5-day CTG proliferation, 120 hours; read-out: HCC827 IC50
Experimental: as §3, §4

[9] = biological target: EGFR (D770_N771insNPG) (Homo sapiens, UniProt P00533, INS770NPG); experiment: HotSpot radiometric kinase assay, inhibition of EGFR (D770_N771insNPG) mutant; format: biochemical; details: 33P ATP, room temperature, 120 m
Experimental: as §1, §2

[10] = biological target: T3, pEGFR, PC-9 cells (d746-750 EGFR) (Homo sapiens, UniProt P00533, DEL746-750); experiment: Cellular EGFR phosphorylation assay (LANCE Ultra TR-FRET) in PC-9 cells; format: cell-based; details: 4 hours at 37° C., read-out: PC-9 pEGFR IC50
T3 construct: pEGFR (Tyr1068) TR-FRET
Experimental: as §5, §6

Chain of EGFR (D770_N771insNPG) (P00533 with tags, fused parts or gaps INS770NPG limits assumed): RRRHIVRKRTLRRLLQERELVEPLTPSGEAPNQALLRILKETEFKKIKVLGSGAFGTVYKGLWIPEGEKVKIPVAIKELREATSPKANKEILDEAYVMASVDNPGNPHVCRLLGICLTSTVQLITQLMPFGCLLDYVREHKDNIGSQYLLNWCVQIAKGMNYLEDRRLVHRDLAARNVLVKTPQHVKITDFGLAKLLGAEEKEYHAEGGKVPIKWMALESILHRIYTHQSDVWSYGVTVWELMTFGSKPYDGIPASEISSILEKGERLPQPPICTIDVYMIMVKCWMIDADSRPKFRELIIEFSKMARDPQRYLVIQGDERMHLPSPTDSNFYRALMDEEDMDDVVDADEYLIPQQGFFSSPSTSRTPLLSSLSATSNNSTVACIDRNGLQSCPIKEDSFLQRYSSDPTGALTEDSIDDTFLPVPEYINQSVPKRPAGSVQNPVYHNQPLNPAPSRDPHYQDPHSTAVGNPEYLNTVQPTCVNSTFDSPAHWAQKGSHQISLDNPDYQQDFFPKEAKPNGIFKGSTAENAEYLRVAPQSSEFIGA
T2 sequence (P00533 25-1210): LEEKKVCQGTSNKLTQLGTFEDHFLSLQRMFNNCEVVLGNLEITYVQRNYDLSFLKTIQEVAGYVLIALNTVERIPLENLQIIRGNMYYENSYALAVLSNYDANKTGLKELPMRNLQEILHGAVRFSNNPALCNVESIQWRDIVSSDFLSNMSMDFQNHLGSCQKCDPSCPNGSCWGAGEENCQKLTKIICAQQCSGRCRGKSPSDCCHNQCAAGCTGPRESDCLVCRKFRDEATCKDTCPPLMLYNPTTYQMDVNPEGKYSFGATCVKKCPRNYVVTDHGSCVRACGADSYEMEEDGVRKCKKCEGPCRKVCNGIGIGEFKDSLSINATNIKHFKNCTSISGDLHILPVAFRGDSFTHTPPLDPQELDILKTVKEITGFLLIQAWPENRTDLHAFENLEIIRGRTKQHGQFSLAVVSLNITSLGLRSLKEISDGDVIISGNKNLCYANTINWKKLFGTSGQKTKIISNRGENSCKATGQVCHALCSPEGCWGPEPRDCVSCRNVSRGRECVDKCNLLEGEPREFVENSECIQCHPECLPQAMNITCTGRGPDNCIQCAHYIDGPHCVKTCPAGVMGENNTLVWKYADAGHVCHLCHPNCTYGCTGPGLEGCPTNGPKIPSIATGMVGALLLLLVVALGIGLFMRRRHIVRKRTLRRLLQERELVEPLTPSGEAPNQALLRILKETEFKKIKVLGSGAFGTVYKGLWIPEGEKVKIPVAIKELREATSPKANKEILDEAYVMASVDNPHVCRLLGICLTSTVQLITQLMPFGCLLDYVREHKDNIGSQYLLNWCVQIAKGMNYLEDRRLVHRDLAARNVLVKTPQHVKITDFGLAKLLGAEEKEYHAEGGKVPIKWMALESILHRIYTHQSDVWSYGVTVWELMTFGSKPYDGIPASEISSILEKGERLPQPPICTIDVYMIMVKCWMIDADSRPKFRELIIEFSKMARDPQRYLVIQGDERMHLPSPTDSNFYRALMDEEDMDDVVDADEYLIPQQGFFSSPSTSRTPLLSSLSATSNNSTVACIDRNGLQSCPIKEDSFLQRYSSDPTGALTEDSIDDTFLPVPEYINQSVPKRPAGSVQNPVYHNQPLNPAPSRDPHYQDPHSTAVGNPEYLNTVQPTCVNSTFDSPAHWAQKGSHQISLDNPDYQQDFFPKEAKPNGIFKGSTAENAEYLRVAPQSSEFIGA
T1 sequence (P00533 25-1210 T790M/L858R): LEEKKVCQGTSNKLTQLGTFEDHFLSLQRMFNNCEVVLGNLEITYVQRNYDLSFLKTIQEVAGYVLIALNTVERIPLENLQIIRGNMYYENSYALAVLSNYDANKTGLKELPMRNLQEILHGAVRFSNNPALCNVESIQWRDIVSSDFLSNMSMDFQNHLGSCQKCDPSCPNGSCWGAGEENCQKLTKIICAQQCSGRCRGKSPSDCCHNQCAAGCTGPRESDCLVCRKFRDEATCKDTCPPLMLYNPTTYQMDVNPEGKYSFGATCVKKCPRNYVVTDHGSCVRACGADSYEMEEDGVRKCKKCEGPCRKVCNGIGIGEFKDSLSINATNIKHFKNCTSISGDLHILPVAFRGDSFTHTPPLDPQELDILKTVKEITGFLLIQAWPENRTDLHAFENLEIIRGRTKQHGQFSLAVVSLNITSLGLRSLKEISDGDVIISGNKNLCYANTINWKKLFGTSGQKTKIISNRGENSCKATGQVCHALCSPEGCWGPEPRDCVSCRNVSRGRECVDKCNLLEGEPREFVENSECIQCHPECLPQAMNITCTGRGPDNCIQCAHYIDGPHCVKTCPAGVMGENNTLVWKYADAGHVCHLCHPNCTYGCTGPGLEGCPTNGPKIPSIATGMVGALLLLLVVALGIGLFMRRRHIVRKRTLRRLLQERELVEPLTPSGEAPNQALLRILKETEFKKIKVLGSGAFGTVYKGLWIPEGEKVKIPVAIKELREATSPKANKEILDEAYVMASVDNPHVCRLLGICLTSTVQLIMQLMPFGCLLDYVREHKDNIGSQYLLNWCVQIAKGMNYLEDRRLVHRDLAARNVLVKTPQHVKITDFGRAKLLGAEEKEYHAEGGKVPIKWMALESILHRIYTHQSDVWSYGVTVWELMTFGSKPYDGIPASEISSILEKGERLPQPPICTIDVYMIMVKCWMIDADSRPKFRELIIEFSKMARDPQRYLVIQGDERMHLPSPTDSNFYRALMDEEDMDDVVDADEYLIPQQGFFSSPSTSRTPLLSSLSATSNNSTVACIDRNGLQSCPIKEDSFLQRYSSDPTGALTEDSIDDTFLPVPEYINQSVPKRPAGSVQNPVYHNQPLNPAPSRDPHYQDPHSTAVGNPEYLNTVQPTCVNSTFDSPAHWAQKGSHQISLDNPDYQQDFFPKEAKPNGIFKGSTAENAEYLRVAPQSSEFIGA
Chain of EGFR (L858R/T790M/C797S) (P00533 25-1210 T790M/C797S/L858R): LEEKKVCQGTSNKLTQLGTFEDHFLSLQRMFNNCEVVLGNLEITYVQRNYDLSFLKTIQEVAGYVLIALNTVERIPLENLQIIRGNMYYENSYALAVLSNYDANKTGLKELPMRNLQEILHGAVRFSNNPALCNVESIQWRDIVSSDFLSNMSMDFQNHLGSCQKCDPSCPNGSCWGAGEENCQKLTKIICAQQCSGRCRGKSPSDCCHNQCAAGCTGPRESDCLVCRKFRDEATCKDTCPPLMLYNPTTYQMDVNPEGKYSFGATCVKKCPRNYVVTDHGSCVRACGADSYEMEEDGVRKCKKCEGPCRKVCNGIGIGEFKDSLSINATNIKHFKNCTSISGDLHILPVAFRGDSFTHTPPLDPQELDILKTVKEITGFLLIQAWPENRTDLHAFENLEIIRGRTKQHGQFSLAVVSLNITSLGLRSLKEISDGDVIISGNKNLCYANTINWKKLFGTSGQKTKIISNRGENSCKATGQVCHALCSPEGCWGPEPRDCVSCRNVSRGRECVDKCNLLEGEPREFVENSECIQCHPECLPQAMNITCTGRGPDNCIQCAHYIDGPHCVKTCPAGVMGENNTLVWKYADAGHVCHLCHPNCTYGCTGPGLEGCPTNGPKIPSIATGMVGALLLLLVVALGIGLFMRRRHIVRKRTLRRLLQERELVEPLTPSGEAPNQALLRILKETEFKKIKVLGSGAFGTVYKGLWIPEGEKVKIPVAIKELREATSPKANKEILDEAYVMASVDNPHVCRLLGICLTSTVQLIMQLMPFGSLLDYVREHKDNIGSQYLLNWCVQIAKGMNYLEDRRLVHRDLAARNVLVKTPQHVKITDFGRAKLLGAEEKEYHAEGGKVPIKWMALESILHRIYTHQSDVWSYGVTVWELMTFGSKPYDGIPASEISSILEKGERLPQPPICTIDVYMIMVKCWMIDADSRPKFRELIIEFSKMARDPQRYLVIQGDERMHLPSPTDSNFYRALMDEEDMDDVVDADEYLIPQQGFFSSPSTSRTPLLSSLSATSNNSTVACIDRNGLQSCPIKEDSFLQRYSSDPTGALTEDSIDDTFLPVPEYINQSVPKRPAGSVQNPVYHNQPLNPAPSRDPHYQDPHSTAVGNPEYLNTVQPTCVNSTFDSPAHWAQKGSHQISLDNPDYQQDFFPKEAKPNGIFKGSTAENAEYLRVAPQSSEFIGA

SMILES | IC50 [1] [nM] | IC50 [2] [nM] | IC50 [3] [nM] | IC50 [4] [nM] | IC50 [5] [nM] | IC50 [6] [nM] | IC50 [7] [nM] | IC50 [8] [nM] | IC50 [9] [nM] | IC50 [10] [nM]
Cc1nn(C)c2c1-c1cc3c(n[nH]c3c(C)n1)/C=C/c1c(OCC#N)nn(CCO)c1CN(C)C[C@H](C)O2 [Ex. 63, {[(10S,17E)-14-(2-hydroxyethyl)-6,8,10,12,20-pentamethyl-2,10,11,12,13,14-hexahydro-8H-5,3-(azenometheno)tripyrazolo[3,4-f:3,4′-j:4″,3″-n][1,4]oxazacyclopentadecin-16-yl]oxy}acetonitrile] | 0.6 | 13.8 | 0.36 | 3.31 | 9.62 | 1.09 | 57.3 | 2.7 | 0.39 | 2.38
CCOc1nn(CCO)c2c1/C=C/c1n[nH]c3c(C)nc(cc13)-c1cnn(C)c1O[C@H](C)CN(CC)C2 [Ex. 37, 2-[(10R,17E)-16-ethoxy-12-ethyl-8,10,20-trimethyl-2,8,10,11,12,13-hexahydro-14H-5,3-(azenometheno)tripyrazolo[3,4-f:3′,4′-j:4″,3″-n][1,4]oxazacyclopentadecin-14-yl]ethan-1-ol] | 0.71 | – | 0.31 | – | – | 0.79 | – | – | 1.62 | –
CCOc1nn(CCO)c2c1/C=C/c1n[nH]c3cnc(cc13)-c1cnn(C)c1O[C@@H](C)CN(CC)C2 [Ex. 34, 2-[(10S,17E)-16-ethoxy-12-ethyl-8,10-dimethyl-2,8,10,11,12,13-hexahydro-14H-5,3-(azenometheno)tripyrazolo[3,4-f:3′,4′-j:4″,3″-n][1,4]oxazacyclopentadecin-14-yl]ethan-1-ol] | 0.28 | 4.22 | 0.12 | – | 1.75 | 0.31 | – | 0.39 | 0.11 | –
CCc1nn(CCO)c2c1/C=C/c1n[nH]c3cnc(cc13)-c1c(C)nn(C)c1O[C@H](C)CN(CC)C2 [Ex. 55, 2-[(10R,17E)-12,16-diethyl-6,8,10-trimethyl-2,8,10,11,12,13-hexahydro-14H-5,3-(azenometheno)tripyrazolo[3,4-f:3′,4′-j:4″,3″-n][1,4]oxazacyclopentadecin-14-yl]ethan-1-ol] | 0.53 | – | 0.25 | – | – | 0.72 | – | – | 1.38 | –

Results, then the compound that gave them:

IC50 [1] [nM] | IC50 [2] [nM] | IC50 [3] [nM] | IC50 [4] [nM] | IC50 [5] [nM] | IC50 [6] [nM] | IC50 [7] [nM] | IC50 [8] [nM] | IC50 [9] [nM] | IC50 [10] [nM] | SMILES
1.93 | 92 | 1.87 | 262 | 308 | 3.68 | 160 | 41.9 | 15.3 | 75.4 | CCOc1nn(CCO)c2c1/C=C/c1n[nH]c3cnc(cc13)-c1c(c(C)nn1C)OCCN(C)C2 [Ex. 69, 2-[(17E)-16-ethoxy-6,8,12-trimethyl-2,6,10,11,12,13-hexahydro-14H-5,3-(azenometheno)tripyrazolo[3,4-f:3′,4′-j:3″,4″-n][1,4]oxazacyclopentadecin-14-yl]ethan-1-ol]
0.82 | 5.63 | 0.41 | 2.79 | 26.6 | 1.2 | 29.6 | 1.02 | 0.42 | 2.74 | Cc1nn(C)c2c1-c1cc3c(n[nH]c3cn1)/C=C/c1c(OCC#N)nn([C@@H](C)CO)c1CN1CCC[C@@H]1CO2 [Ex. 64, {[(8aR,19E)-3-[(2S)-1-hydroxypropan-2-yl]-11,13-dimethyl-3,4,7,8,8a,9,11,17-octahydro-6H-14,16-(azenometheno)tripyrazolo[3,4-f:3′,4′-j:4″,3″-n]pyrrolo[2,1-c][1,4]oxazacyclopentadecin-1-yl]oxy}acetonitrile]
0.56 | – | 0.29 | – | – | 0.83 | – | – | 0.35 | – | Cc1nn(C)c2c1-c1cc3c(n[nH]c3cn1)/C=C/c1c(OCC#N)nn(CCO)c1CN(C)C[C@@H](C)O2 [Ex. 42, {[(10R,17E)-14-(2-hydroxyethyl)-6,8,10,12-tetramethyl-2,10,11,12,13,14-hexahydro-8H-5,3-(azenometheno)tripyrazolo[3,4-f:3′,4′-j:4″,3″-n][1,4]oxazacyclopentadecin-16-yl]oxy}acetonitrile]
0.23 | – | 0.15 | – | – | 0.4 | – | – | 0.36 | – | Cc1nn([C@@H](C)CO)c2c1/C=C/c1n[nH]c3cnc(cc13)-c1c(C)nn(C)c1O[C@@H](C)CN(C)C2 [Ex. 46, (2S)-2-[(10S,17E)-6,8,10,12,16-pentamethyl-2,8,10,11,12,13-hexahydro-14H-5,3-(azenometheno)tripyrazolo[3,4-f:3′,4′-j:4″,3″-n][1,4]oxazacyclopentadecin-14-yl]propan-1-ol]
0.54 | – | 0.36 | – | – | 1.04 | – | – | 0.42 | – | CCN1CCOc2c(c(C)nn2C)-c2cc3c(n[nH]c3cn2)/C=C/c2c(OCC#N)nn([C@@H](C)CO)c2C1 [Ex. 66, {[(17E)-12-ethyl-4-[(2S)-1-hydroxypropan-2-yl]-6,8-dimethyl-2,10,11,12,13,14-hexahydro-8H-5,3-(azenometheno)tripyrazolo[3,4-f:3′,4′-j:4″,3″-n][1,4]oxazacyclopentadecin-16-yl]oxy}acetonitrile]
0.31 | – | 0.16 | – | – | 0.69 | – | – | 0.41 | – | Cc1nn(C)c2c1-c1cc3c(n[nH]c3cn1)/C=C/c1c(OCC#N)nn([C@@H](C)CO)c1CN(C)CCO2 [Ex. 70, {[(17E)-14-[(2S)-1-hydroxypropan-2-yl]-6,8,12-trimethyl-2,10,11,12,13,14-hexahydro-8H-5,3-(azenometheno)tripyrazolo[3,4-f:3′,4′-j:4″,3″-n][1,4]oxazacyclopentadecin-16-yl]oxy}acetonitrile]
